These results are taken from patent publication US5792622A, “Assay for chemicals” (priority 1995, dated 1998).

≈ marks a conversion by molar mass, not a printed value. Where two headings read alike, the source gives them in different places.

One data set has as its system Ps fluorescens. In kind it is cell-based.
Another data set has as its system R. sphaeroides. In kind it is cell-based.
Another data set has as its system S. typhimurium. In kind it is cell-based.
The subject of data set [1] is E. coli. It is filed as cell-based.
In another data set the test system is R. leguminosarum. In kind it is cell-based.
Another data set has as its system B. japonicum. It is filed as cell-based.
The subject of data set [2] is R. meliloti. It is filed as cell-based.
The next data set concerns B. megaterium. It is filed as cell-based.
Another data set relates to A. crystallopoites. It is filed as cell-based.
The test system of another data set is S. lactis. It is filed as cell-based.
The subject of data set [3] is R. meliloti. Put plainly: microbe, parasite or virus in culture. In kind it is cell-based. The note with it: for ppm (50% inhibition of dye reduction): Table 7, minerals; for Rhizobium/Tetrazolium IC50: Table 8.
The procedure of data set [4]: Solid phenol was dissolved in water and added to the reaction tubes.
In data set [5] the test system is R. meliloti. Conditions: cited from earlier work.
The next data set deals with fish (trout fingerlings). The note with it: Table 8, trout fingerlings; cited from earlier work.
For data set [6] the following is noted: cited from earlier work; for Microtox IC50: Table 8.
The next data set relates to R. meliloti NSI. The data set can be described thus: Inhibition of growth of R. meliloti NSI. It is filed as cell-based. Conditions: read-out: concentration inhibiting growth 50%. As for the experimental part: Typically, R. meliloti is grown in medium with 10-20 uM calcium. Magnesium sulfate, at 59.9 ppm, is 0.2435 mM. The medium MDM contains 0.6 mm Magnesium chloride; this is a concentration found in most defined media. […] CDM, the medium used in the experiments with the assay of the invention, is 0.81 mM with respect to magnesium.

The subject of the next data set is Rhodobacter sphaeroides. Put plainly: Inhibition of tetrazolium dye reduction by Rhodobacter sphaeroides. It is filed as cell-based. Here is the method: (§1) The other strains of bacteria, mixed in a buffer with various toxic chemicals, which were tested with the tetrazolium dye, gave varying results. Some bacteria reduced the dye, but the reduction was not inhibited appreciably by toxic chemicals. The absorbance of tetrazolium by Rhodobacter sphaeroides was not inhibited by copper. E. coli reduced the dye, but reduction was not inhibited by xylene. […] FIG. 1 is a graph showing data comparing the absorbance of the bacteria R. meliloti and E. coli at A590 varying between 0.0 and 0.3 in reacting with different toxins.

The subject of data set [7] is E. coli. Put plainly: Inhibition of tetrazolium dye reduction by E. coli. In kind it is cell-based. As for the experimental part:
as §1

The mark [8] stands for this setting: Sinorhizobium meliloti, read-out: average (ppm), concentration giving 50% inhibition of dye reduction.
Where [9] appears, read: Sinorhizobium meliloti, read-out: Rhizobium/Tetrazolium IC50.
Where [10] appears, read: ratio of the inhibitory concentrations.

As for `c1ccc(-c2nn(-c3ccccc3)[n+](-c3cccc4ccccc34)n2)cc1` [TV, 2,5-diphenyl-3-(α-napthyl)tetrazolium chloride], the “absorbance of reduced dye” value in the data set on Ps fluorescens (Table 1, incubation 1:57 hrs) came out at 0.01; with R. sphaeroides (Table 1, incubation 11:25 hrs) it was 0.12; with S. typhimurium (Table 1, incubation 2:00 hrs), 0.04; in the data set on E. coli [1] (Table 1, incubation 1:40 hrs), 0.03; with R. leguminosarum (Table 1, incubation 7:48 hrs) it was 0; in the data set on B. japonicum (Table 1, incubation 7:48 hrs), 0.14. Also, the “absorbance of reduced dye” value in the data set on R. meliloti [2] (Table 1, incubation 2:00 hrs) is recorded as 0.08; in the data set on B. megaterium (Table 1, incubation 2:00 hrs), 0.07; with A. crystallopoites (Table 1, incubation 2:00 hrs) it was 0.08; in the data set on S. lactis (Table 1, incubation 9:57 hrs) it was 0.04. The “rate of reduction of the dye” value with R. meliloti [2] (in words) is listed as “reduced more slowly than MTT”.
In the case of `ClC(Cl)(Cl)Cl` [Carbon tetrachloride], the IC50 in the data set with R. meliloti [3] (Sinorhizobium meliloti, Table 4, organic compounds, read-out: average (ppm), concentration giving 50% inhibition of dye reduction) came out at 3530 µg/mL (≈ 22.9 mM). Further, the miscibility in water entry in [4] is recorded as “very immiscible in water”.
As to `N#CC(C#N)=NNc1ccc(OC(F)(F)F)cc1` [FCCP, carbonyl-cyanide p(triflouromethoxy)phenylhydrozone], the IC50 entry in the data set with R. meliloti [3] was “only a few μl”; with R. meliloti [3] (setting [8]), 0.114 µg/mL (≈ 0.000449 mM). Moreover, the “inhibition of tetrazolium reduction compared with DNP” value with R. meliloti [5] is “at a much lower concentration than does DNP”.
With `Oc1ccccc1` [Phenol], in the data set with fish (trout fingerlings), the “Fish LD50 (50% death of the fish)” value was 50-100 ppm. In addition, the “sensitivity of Rhizobium/Tetrazolium assay compared with Microtox assay” value with R. meliloti [3] was “at least an order of magnitude more sensitive than the Rhizobium/Tetrazolium assay”. Also, the IC50 was 1220 µg/mL (≈ 13 mM) in the data set with R. meliloti [3] (setting [9]) and 1320 µg/mL (≈ 14 mM) in the data set with R. meliloti [3] (setting [8]). In addition, the Microtox ppm in [6] (microtox bioluminescence) was 623.
As for `COc1cc(-c2ccc(-n3nc(-c4ccccc4)n[n+]3-c3ccccc3)c(OC)c2)ccc1-n1nc(-c2ccccc2)n[n+]1-c1ccccc1` [TB, 3,3'-[3,3'-dimethoxy(1,1'-biphenyl)-4,4'-diyl]-bis(2,5-diphenyl-2H-tetrazolium)dichloride], the “absorbance of reduced dye” value is 0.05 in the data set with Ps fluorescens (Table 1, incubation 1:57 hrs); 0.22 in the data set with S. typhimurium (Table 1, incubation 2:00 hrs); 0.04 in the data set with E. coli [1] (Table 1, incubation 1:40 hrs); 0 in the data set on R. leguminosarum (Table 1, incubation 7:48 hrs); 0.02 with B. japonicum (Table 1, incubation 7:48 hrs); 0.12 in the data set with R. meliloti [2] (Table 1, incubation 2:00 hrs). The “absorbance of reduced dye” value is recorded as 0.17 in the data set on B. megaterium (Table 1, incubation 2:00 hrs); 0.22 in the data set on A. crystallopoites (Table 1, incubation 2:00 hrs); 0.04 in the data set with S. lactis (Table 1, incubation 9:57 hrs).
On to `O=[N+]([O-])c1ccc(-[n+]2nc(-c3ccccc3)nn2-c2ccc(I)cc2)cc1` [INT, 2-(4-iodophenyl)-3-(4-nitrophenyl)-5-phenyltetrazolium chloride], for which the “absorbance of reduced dye” value with Ps fluorescens (Table 1, incubation 1:57 hrs) is reported as 0.17; in the data set on R. sphaeroides (Table 1, incubation 11:25 hrs), 0.95; with S. typhimurium (Table 1, incubation 2:00 hrs), 0.06; in the data set on E. coli [1] (Table 1, incubation 1:40 hrs), 0.12; with R. leguminosarum (Table 1, incubation 7:48 hrs), 0.02; with B. japonicum (Table 1, incubation 7:48 hrs), 0.44. The “absorbance of reduced dye” value in the data set on R. meliloti [2] (Table 1, incubation 2:00 hrs) is on record as 0.48; in the data set on B. megaterium (Table 1, incubation 2:00 hrs), 0.16; in the data set on A. crystallopoites (Table 1, incubation 2:00 hrs) it was 0.14; with S. lactis (Table 1, incubation 9:57 hrs) it was 0.08.
As for `[Cl-].[Cl-].[Mg+2]` [MgCl2, Magnesium chloride], the IC50 with R. meliloti NSI was 26.9 mM.
`c1ccc(-c2nn(-c3ccccc3)[n+](-c3ccccc3)n2)cc1` [TTC, 2,3,5-triphenyltetrazolium chloride]: the “absorbance of reduced dye” value in the data set on Ps fluorescens is listed as 0.01; in the data set on R. sphaeroides, 0.12; with S. typhimurium, 0.04; with E. coli [1] it was 0.14; with R. leguminosarum, 0; in the data set on B. japonicum, 0.07. The “absorbance of reduced dye” value with R. meliloti [2] turned out to be 0.09; in the data set with B. megaterium, 0.1; in the data set with A. crystallopoites, 0.09; in the data set with S. lactis, 0.05.
As for `[Cd]` [Cadmium], the “Fish LD50 (50% death of the fish)” value with fish (trout fingerlings) is given as 1.0-100 ppm. Further, in the data set with R. meliloti [3], the “ppm (50% inhibition of dye reduction)” value was determined as 0.838 ppm and the “Rhizobium/Tetrazolium IC50” value was found to be 0.210 ppm. Besides, in the data set on R. meliloti [3] (setting [10]), the “sensitivity of Rhizobium/Tetrazolium assay compared with Microtox assay” value is “at least an order of magnitude more sensitive for 4 compounds”. For the same compound, the “Microtox IC50” value in data set [6] is reported as 416 ppm.
For the compound `O=c1ccc2[n+]([O-])c3ccc(O)cc3oc-2c1` [Resazurin, resazurin], the “usefulness of dye reduction by E. coli” value with E. coli [1] (protocol used with the tetrazolium dyes) is given as “did not yield useful results”.
For the compound `[Zn]` [Zinc], the “Fish LD50 (50% death of the fish)” value in the data set with fish (trout fingerlings) is given as 0.24-7.20 ppm. In addition, the “ppm (50% inhibition of dye reduction)” value in the data set on R. meliloti [3] turned out to be 4.750 ppm. The “sensitivity of Rhizobium/Tetrazolium assay compared with Microtox assay” value in the data set on R. meliloti [3] (setting [10]) is reported as “at least an order of magnitude more sensitive for 4 compounds”. In addition, the “Microtox IC50” value in data set [6] is on record as 476 ppm.
As to `COc1cc(-c2ccc(-n3nc(-c4ccccc4)n[n+]3-c3ccc([N+](=O)[O-])cc3)c(OC)c2)ccc1-n1nc(-c2ccccc2)n[n+]1-c1ccc([N+](=O)[O-])cc1` [NBT, 2,2'-di-nitrophenyl-5,5'-diphenyl-3,3'(-3,3'-dimethoxy-4,4'-diphenylene)ditetrazolium chloride], the “absorbance of reduced dye” value with Ps fluorescens (Table 1, incubation 1:57 hrs) is on record as 0.04; in the data set on R. sphaeroides (Table 1, incubation 11:25 hrs) it was 0.16; in the data set on S. typhimurium (Table 1, incubation 2:00 hrs), 0.24; with E. coli [1] (Table 1, incubation 1:40 hrs), 0.1; in the data set on R. leguminosarum (Table 1, incubation 7:48 hrs) it was 0; in the data set on B. japonicum (Table 1, incubation 7:48 hrs) it was 0.01. Moreover, the “absorbance of reduced dye” value is 0.16 in the data set on R. meliloti [2] (Table 1, incubation 2:00 hrs); 0.19 with B. megaterium (Table 1, incubation 2:00 hrs); 0.27 in the data set with A. crystallopoites (Table 1, incubation 2:00 hrs); 0.06 with S. lactis (Table 1, incubation 9:57 hrs).
In the case of `[Cu]` [Copper], the “Fish LD50 (50% death of the fish)” value with fish (trout fingerlings) is listed as 0.1-10.7 ppm. For the same compound, the “inhibition of absorbance of tetrazolium” value in the data set on Rhodobacter sphaeroides is “not inhibited”. Further, the “effect on the reduction of the dye at very low concentrations” value in the data set on R. meliloti [3] (FIG. 10) is given as “stimulates the reduction of the dye at very low concentrations”. In the data set on R. meliloti [3], the “ppm (50% inhibition of dye reduction)” value was found to be 0.960 ppm and the “Rhizobium/Tetrazolium IC50” value is given as 0.240 ppm. For the same compound, the “sensitivity of Rhizobium/Tetrazolium assay compared with Microtox assay” value in the data set on R. meliloti [3] (setting [10]) is given as “at least an order of magnitude more sensitive for 4 compounds”. Also, the “Microtox IC50” value in data set [6] is recorded as 24.96 ppm.
For the compound `Cc1ccccc1` [Toluene], the “Fish LD50 (50% death of the fish)” value in the data set with fish (trout fingerlings) is 23 ppm. The IC50 is 590 µg/mL (≈ 6.4 mM) in the data set with R. meliloti [3] (setting [9]) and 30 to 502 µg/mL (≈ 0.326 to 5.45 mM) in the data set with R. meliloti [3] (Sinorhizobium meliloti, read-out: Rhizobium/Tetrazolium ppm). Also, the “sensitivity of Rhizobium/Tetrazolium assay compared with Microtox assay” value with R. meliloti [3] (setting [10]) is given as “at least an order of magnitude more sensitive than the Rhizobium/Tetrazolium assay”. Further, in data set [6], the “Microtox IC50” value is listed as 33,833 ppm. The Microtox ppm in data set [6] (Table 9) is recorded as 18.0-33,833 ppm.
Xylene: the “ppm (50% inhibition of reduction)” value was 151 ppm with R. meliloti [3] (Table 5, 10,000 ppm stock method); 30.3 ppm with R. meliloti [3] (Table 5, QSAR method: aqueous phase assayed, hydrocarbon in water estimated by QSAR solubility model); 476 ppm in the data set with R. meliloti [3] (Table 5, direct method). For the same compound, the Rhizobium/Tetrazolium ppm in the data set with R. meliloti [3] (Table 9) is recorded as 146-452 ppm. For the same compound, in the data set with R. meliloti [3] (setting [10]), the “sensitivity of Rhizobium/Tetrazolium assay compared with Microtox assay” value is “at least an order of magnitude more sensitive than the Rhizobium/Tetrazolium assay”. Further, in data set [6] (Table 9), the Microtox ppm result is recorded as “.70-9.25 ppm”. For the same compound, the “inhibition of dye reduction” value in the data set with E. coli [7] is “not inhibited”.
